System: HCT116 MTAP null cells
Assay: HCT116 MTAP null cell proliferation / viability (CellTiter-Glo, 6 days)
Format: cell-based
Conditions: HCT116-MTAP null, 144 h, HCT116 MTAP null cells, 6 days, CellTiter-Glo; read-out: HCT-116 MTAP null IC50
Procedure: (§1) HCT116 MTAP null and WT cells were seeded in 96-well tissue culture plates in RPMI 1640 media+10% fetal bovine serum. Plates were incubated overnight at 37° C. and 5% CO2. Cells were then treated with an 8- or 9-point serial dilution of compound, using a top concentration of 1, or 10 μM, 1:3 serial dilution steps and, a DMSO-only control. Cells were incubated in the presence of drug for 6 days. Effects on cell viability were measured with the CellTiter-Glo® Luminescent Cell Viability Assay (Promega) per manufacturer's recommendation. Assay plates were read on an EnVision™ Multilabel Reader using the Ultra-Sensitive luminescence module. IC50 values were calculated with GraphPad Prism v 5.01 using symmetrical sigmoidal dose-response least squares fit with Hill slope fixed to −1 and top constrain to 100% or GeneData Screener using a 4-parameter logistic model to fit dose response curves.
(§2) Alternatively, compounds could be assayed with a 384 well plate format:
(§3) Compounds were pre-spotted into 384 well plates with a 22-point serial dilution of compound, using a top concentration of 10 or 50 μM, 1:2 serial dilution steps and, a DMSO-only control. HCT116 MTAP null and WT cells were then seeded as above and after 6 days effects on cell viability were measured with the CellTiter-Glo® Luminescent Cell Viability Assay (Promega). Assay plates were read as above and IC50 values were calculated with GeneData Screener using a 4-parameter logistic model to fit dose response curves. The reported IC50 represents the value where the curve transits 50% of control.

| IC50 [nM] | Compound |
| --- | --- |
| 26 | COCC(C)N(Cc1ccc(C(F)(F)F)nn1)C(=O)c1ccc2nc(N)c3c(c2c1)CO[C@@H]3C (mixture of isomers) [Example 304, (3R)-4-amino-N-((2R)-1-methoxy-2-propanyl)-3-methyl-N-((6-(trifluoromethyl)-3-pyridazinyl)methyl)-1,3-dihydrofuro[3,4-c]quinoline-8-carboxamide and (3R)-4-amino-N-((2S)-1-methoxy-2-propanyl)-3-methyl-N-((6-(trifluoromethyl)-3-pyridazinyl)methyl)-1,3-dihydrofuro[3,4-c]quinoline-8-carboxamide] |
| 254 | COCC(C)N(Cc1ccc(C(F)(F)F)nn1)C(=O)c1cc2c3c(c(N)nc2cn1)[C@@H](C)OC3 (mixture of isomers) [Example 314, (3R)-4-amino-N-((2R)-1-methoxy-2-propanyl)-3-methyl-N-((6-(trifluoromethyl)-3-pyridazinyl)methyl)-1,3-dihydrofuro[3,4-c][1,7]naphthyridine-8-carboxamide and (3R)-4-amino-N-((2S)-1-methoxy-2-propanyl)-3-methyl-N-((6-(trifluoromethyl)-3-pyridazinyl)methyl)-1,3-dihydrofuro[3,4-c][1,7]naphthyridine-8-carboxamide] |
| 24 | COCC(C)N(Cc1ccc(C(F)(F)F)nn1)C(=O)c1ccc2nc(N)c3c(c2c1)COC3 (racemic) [Example 303, 4-amino-N-((2R)-1-methoxy-2-propanyl)-N-((6-(trifluoromethyl)-3-pyridazinyl)methyl)-1,3-dihydrofuro[3,4-c]quinoline-8-carboxamide and 4-amino-N-((2S)-1-methoxy-2-propanyl)-N-((6-(trifluoromethyl)-3-pyridazinyl)methyl)-1,3-dihydrofuro[3,4-c]quinoline-8-carboxamide] |
| 262 | COCC(C)N(Cc1ccc(C(F)(F)F)nn1)C(=O)c1cc2c3c(c(N)nc2cn1)COC3 (racemic) [Example 390, 4-amino-N-((2R)-1-methoxy-2-propanyl)-N-((6-(trifluoromethyl)-3-pyridazinyl)methyl)-1,3-dihydrofuro[3,4-c][1,7]naphthyridine-8-carboxamide and 4-amino-N-((2S)-1-methoxy-2-propanyl)-N-((6-(trifluoromethyl)-3-pyridazinyl)methyl)-1,3-dihydrofuro[3,4-c][1,7]naphthyridine-8-carboxamide] |
| 361 | CC(C)N(Cc1ccc(Br)nn1)C(=O)c1ccc2nc(N)c3c(c2c1)COC3 [Example 335, 4-amino-N-((6-bromo-3-pyridazinyl)methyl)-N-(2-propanyl)-1,3-dihydrofuro[3,4-c]quinoline-8-carboxamide] |
| 1310 | CC(C)(C)CN(Cc1ccc(C(F)(F)F)cn1)C(=O)c1ccc2nc(N)c3c(c2c1)COC3 [Example 342, 4-amino-N-(2,2-dimethylpropyl)-N-((5-(trifluoromethyl)-2-pyridinyl)methyl)-1,3-dihydrofuro[3,4-c]quinoline-8-carboxamide] |
| 249 | CC1(N(Cc2ccc(C(F)(F)F)cn2)C(=O)c2cc3c4c(c(N)nc3cn2)COC4)CC1 [Example 699, 4-amino-N-(1-methylcyclopropyl)-N-((5-(trifluoromethyl)-2-pyridinyl)methyl)-1,3-dihydrofuro[3,4-c][1,7]naphthyridine-8-carboxamide] |
| 40 | CC1OCc2c1c(N)nc1ccc(C(=O)N(Cc3ccc(C(F)(F)F)cn3)C(C)C3CCOCC3)cc21 (stereo not drawn) [Example 891, 4-amino-3-methyl-N-(1-(tetrahydro-2H-pyran-4-yl)ethyl)-N-((5-(trifluoromethyl)pyridin-2-yl)methyl)-1,3-dihydrofuro[3,4-c]quinoline-8-carboxamide] |
| 41 | CC1OCc2c1c(N)nc1ccc(C(=O)N(Cc3ccc(C(F)(F)F)cn3)C[C@H]3CC[C@H](O)CC3)cc21 (stereo partly drawn) [Example 893, 4-amino-N-(((1r,4r)-4-hydroxycyclohexyl)methyl)-3-methyl-N-((5-(trifluoromethyl)pyridin-2-yl)methyl)-1,3-dihydrofuro[3,4-c]quinoline-8-carboxamide] |
| 180 | CC1OCc2c1c(N)nc1ccc(C(=O)N(Cc3ccc(C#N)cn3)C[C@H]3CC[C@H](O)CC3)cc21 (stereo partly drawn) [Example 894, 4-amino-N-((5-cyanopyridin-2-yl)methyl)-N-(((1r,4r)-4-hydroxycyclohexyl)methyl)-3-methyl-1,3-dihydrofuro[3,4-c]quinoline-8-carboxamide] |
| 790 | CC1OCc2c1c(N)nc1ccc(C(=O)N(Cc3ccc(C(F)(F)F)cn3)C3CC3N)cc21 (stereo not drawn) [Example 906, 4-amino-N-(2-aminocyclopropyl)-3-methyl-N-((5-(trifluoromethyl)pyridin-2-yl)methyl)-1,3-dihydrofuro[3,4-c]quinoline-8-carboxamide] |
| 140 | CC1OCc2c1c(N)nc1ccc(C(=O)N(CC3=CCCOC3)Cc3ccc(C#N)cn3)cc21 (stereo not drawn) [Example 912, 4-amino-N-((5-cyanopyridin-2-yl)methyl)-N-((5,6-dihydro-2H-pyran-3-yl)methyl)-3-methyl-1,3-dihydrofuro[3,4-c]quinoline-8-carboxamide] |
| 200 | CC1OCc2c1c(N)nc1ccc(C(=O)N(Cc3ccc(C#N)cn3)Cc3cnc(N)s3)cc21 (stereo not drawn) [Example 914, 4-amino-N-((2-aminothiazol-5-yl)methyl)-N-((5-cyanopyridin-2-yl)methyl)-3-methyl-1,3-dihydrofuro[3,4-c]quinoline-8-carboxamide] |
| 25 | CC(C)CN(Cc1ccc(C(F)(F)F)cn1)C(=O)c1ccc2nc(N)c3c(c2c1)COC3C (stereo not drawn) [Example 919, 4-amino-N-isobutyl-3-methyl-N-((5-(trifluoromethyl)pyridin-2-yl)methyl)-1,3-dihydrofuro[3,4-c]quinoline-8-carboxamide] |
| 76 | CC1OCc2c1c(N)nc1ccc(C(=O)N(Cc3ccc(C(F)(F)F)cn3)C(C)C(C)O)cc21 (stereo not drawn) [Example 920, 4-amino-N-(3-hydroxybutan-2-yl)-3-methyl-N-((5-(trifluoromethyl)pyridin-2-yl)methyl)-1,3-dihydrofuro[3,4-c]quinoline-8-carboxamide] |
| 93 | CC1OCc2c1c(N)nc1ccc(C(=O)N(Cc3ccc(C(F)(F)F)cn3)C3CCCC(O)C3)cc21 (stereo not drawn) [Example 921, 4-amino-N-(3-hydroxycyclohexyl)-3-methyl-N-((5-(trifluoromethyl)pyridin-2-yl)methyl)-1,3-dihydrofuro[3,4-c]quinoline-8-carboxamide] |
| 48 | CC1OCc2c1c(N)nc1ccc(C(=O)N(CCC3CC(O)C3)Cc3ccc(C(F)(F)F)cn3)cc21 (stereo not drawn) [Example 922, 4-amino-N-(2-(3-hydroxycyclobutyl)ethyl)-3-methyl-N-((5-(trifluoromethyl)pyridin-2-yl)methyl)-1,3-dihydrofuro[3,4-c]quinoline-8-carboxamide] |
| 56 | CC(O)CN(Cc1ccc(C(F)(F)F)cn1)C(=O)c1ccc2nc(N)c3c(c2c1)COC3C (stereo not drawn) [Example 923, 4-amino-N-(2-hydroxypropyl)-3-methyl-N-((5-(trifluoromethyl)pyridin-2-yl)methyl)-1,3-dihydrofuro[3,4-c]quinoline-8-carboxamide] |
| 43 | CC(CO)CN(Cc1ccc(C(F)(F)F)cn1)C(=O)c1ccc2nc(N)c3c(c2c1)COC3C (stereo not drawn) [Example 924, 4-amino-N-(3-hydroxy-2-methylpropyl)-3-methyl-N-((5-(trifluoromethyl)pyridin-2-yl)methyl)-1,3-dihydrofuro[3,4-c]quinoline-8-carboxamide] |
| 35 | CC1OCc2c1c(N)nc1ccc(C(=O)N(Cc3ccc(C(F)(F)F)cn3)CC(O)C(F)(F)F)cc21 (stereo not drawn) [Example 925, 4-amino-3-methyl-N-(3,3,3-trifluoro-2-hydroxypropyl)-N-((5-(trifluoromethyl)pyridin-2-yl)methyl)-1,3-dihydrofuro[3,4-c]quinoline-8-carboxamide] |
| 30 | CC1OCc2c1c(N)nc1ccc(C(=O)N(Cc3ccc(C(F)(F)F)cn3)Cc3ncn(C)n3)cc21 (stereo not drawn) [Example 926, 4-amino-3-methyl-N-((1-methyl-1H-1,2,4-triazol-3-yl)methyl)-N-((5-(trifluoromethyl)pyridin-2-yl)methyl)-1,3-dihydrofuro[3,4-c]quinoline-8-carboxamide] |
| 69 | CC1OCc2c1c(N)nc1ccc(C(=O)N(Cc3ccc(C(F)(F)F)cn3)CC3CCOC3)cc21 (stereo not drawn) [Example 927, 4-amino-3-methyl-N-((tetrahydrofuran-3-yl)methyl)-N-((5-(trifluoromethyl)pyridin-2-yl)methyl)-1,3-dihydrofuro[3,4-c]quinoline-8-carboxamide] |
| 39 | CC(C#N)CN(Cc1ccc(C(F)(F)F)cn1)C(=O)c1ccc2nc(N)c3c(c2c1)COC3C (stereo not drawn) [Example 928, 4-amino-N-(2-cyanopropyl)-3-methyl-N-((5-(trifluoromethyl)pyridin-2-yl)methyl)-1,3-dihydrofuro[3,4-c]quinoline-8-carboxamide] |

System: HCT116 WT cells
Assay: HCT116 WT cell proliferation / viability (CellTiter-Glo, 6 days)
Format: cell-based
Conditions: Homo sapiens, HCT-116, 144 h, HCT116 WT cells, 6 days, CellTiter-Glo; read-out: HCT-116 WT IC50
Procedure: as §1, §2, §3

| IC50 [nM] | Compound |
| --- | --- |
| 352 | COCC(C)N(Cc1ccc(C(F)(F)F)nn1)C(=O)c1ccc2nc(N)c3c(c2c1)CO[C@@H]3C (mixture of isomers) [Example 304, (3R)-4-amino-N-((2R)-1-methoxy-2-propanyl)-3-methyl-N-((6-(trifluoromethyl)-3-pyridazinyl)methyl)-1,3-dihydrofuro[3,4-c]quinoline-8-carboxamide and (3R)-4-amino-N-((2S)-1-methoxy-2-propanyl)-3-methyl-N-((6-(trifluoromethyl)-3-pyridazinyl)methyl)-1,3-dihydrofuro[3,4-c]quinoline-8-carboxamide] |
| 15200 | COCC(C)N(Cc1ccc(C(F)(F)F)nn1)C(=O)c1cc2c3c(c(N)nc2cn1)[C@@H](C)OC3 (mixture of isomers) [Example 314, (3R)-4-amino-N-((2R)-1-methoxy-2-propanyl)-3-methyl-N-((6-(trifluoromethyl)-3-pyridazinyl)methyl)-1,3-dihydrofuro[3,4-c][1,7]naphthyridine-8-carboxamide and (3R)-4-amino-N-((2S)-1-methoxy-2-propanyl)-3-methyl-N-((6-(trifluoromethyl)-3-pyridazinyl)methyl)-1,3-dihydrofuro[3,4-c][1,7]naphthyridine-8-carboxamide] |
| 574 | COCC(C)N(Cc1ccc(C(F)(F)F)nn1)C(=O)c1ccc2nc(N)c3c(c2c1)COC3 (racemic) [Example 303, 4-amino-N-((2R)-1-methoxy-2-propanyl)-N-((6-(trifluoromethyl)-3-pyridazinyl)methyl)-1,3-dihydrofuro[3,4-c]quinoline-8-carboxamide and 4-amino-N-((2S)-1-methoxy-2-propanyl)-N-((6-(trifluoromethyl)-3-pyridazinyl)methyl)-1,3-dihydrofuro[3,4-c]quinoline-8-carboxamide] |
| 9900 | COCC(C)N(Cc1ccc(C(F)(F)F)nn1)C(=O)c1cc2c3c(c(N)nc2cn1)COC3 (racemic) [Example 390, 4-amino-N-((2R)-1-methoxy-2-propanyl)-N-((6-(trifluoromethyl)-3-pyridazinyl)methyl)-1,3-dihydrofuro[3,4-c][1,7]naphthyridine-8-carboxamide and 4-amino-N-((2S)-1-methoxy-2-propanyl)-N-((6-(trifluoromethyl)-3-pyridazinyl)methyl)-1,3-dihydrofuro[3,4-c][1,7]naphthyridine-8-carboxamide] |

From patent US20240101570A1 (AMGEN INC., priority 2020, published 2024)
